In patent US4959370A, “Alkaloids of marine origin” (priority 1989, dated 1990):
Read-outs that look alike come from different tables or passages of the source.

How the values were obtained:
[1] = tested on: fourth larval stage of N. brasiliensis; experiment: In vitro anthelmintic activity against fourth larval stage (L4); type: cell-based, Nippostrongylus brasiliensis; conditions: 50 μg/ml, 37° C., seven days; for inhibition at 50 µg/mL: Nippostrongylus brasiliensis, 168 h
Protocol: To obtain the fourth larval stage (L4) of Nippostrongylus brasiliensis, rats were inoculated with 6,500 to 6,750 N. brsiliensis third stage larvae subcutaneously. Seventy-two hours later the rats were sacrificed and the fourth stage larvae harvested. Compounds of Formula (I) were tested at 50 μg/mL against the fourth larval stage of N. brasiliensis at approximately 50 L4/well. This mixture was incubated at 37° C. for a total of seven days and then read for activity. Parameters used to determine drug activity were motility, viability, and the ability of fourth stage larvae to molt to the adult, i.e., cast formation. A compound was defined as active if (1) cast formation was reduced by 40 percent or more; or (2) viability and motility together were reduced 40 percent or more. | Compound B is a compound of Formula (I) where R is methyl. *Percent cast | reduction was determined by the following: | **Percent viability reduction was determined by the | following: | ***Percent motility reduction was a subjective evaluation

[2] = molecular target: T1, purified cloned reverse transcriptase (RT) (HIV-1 M:B_HXB2R, UniProt P04585); experiment: In vitro reverse transcriptase inhibitory activity; type: biochemical; conditions: 400 μg/ml in 10 percent DMSO; 37° C., 0, 15, and 30 minutes; decrease in [3H] TTP incorporation vs controls
T1 construct: mature chain of Gag-Pol polyprotein
Protocol: The activity of purified cloned reverse transcriptase (RT), in the presence or absence of test compound, was assayed by measuring the incorporation of tritiated thymidine triphosphate ([^3 H] TTP) into a DNA chain using polyadenosine as the template and oligodeoxythymidine as the primer (Biochem. Pharm. 1987, Vol. 36, No. 24 pp. 4361-4362). The final concentration of the compounds tested for anti-RT activity was 400 μg/ml in 10 percent DMSO. Controls contained 10 percent DMSO only. After incubation at 37° C. for 0, 15, and 30 minutes, an aliquot of the incubation mixture was spotted on cellulose paper, washed in TCA-pyrophosphate solution to remove [^3 H] TTP, dried and analyzed for the rate of incorporation of radioactivity. The compounds which inhibited more than 50 percent of the enzyme activity, as determined by a decrease in radioactivity compared with controls, were considered active.

[3] = cast formation (molt to adult), read-out: PERCENT REDUCTION COMPARED TO CONTROL: Casts
[4] = subjective evaluation, read-out: PERCENT REDUCTION COMPARED TO CONTROL: Motility

Row | SMILES | PERCENT REDUCTION COMPARED TO CONTROL: Viability [1] [%] | inhibition at 50 µg/mL [1, 3] [%] | inhibition at 50 µg/mL [1, 4] [%] | inhibition at 400 µg/mL [2] [%]
1 | CNc1c2c(c3nc4ccccc4c4c3c1N=C4)NCCC2=O [Compound A, plakinidine A] | 100 | 100 | 100 | 83
2 | CN(C)c1c2c(c3nc4ccccc4c4c3c1N=C4)NCCC2=O [Compound B, plakinidine B] | 100 | 100 | 100 | –
